{"source": "patent US8895733B2", "about": "(Novartis AG, priority 2010, dated 2014)", "note": "pIC50: −log10 of the molar value."}
{"molecular_target": "T1, Nav 1.7 (Homo sapiens, UniProt Q15858)", "T1 construct": "expressed in transfected cells", "T1 sequence (Q15858 whole entry)": "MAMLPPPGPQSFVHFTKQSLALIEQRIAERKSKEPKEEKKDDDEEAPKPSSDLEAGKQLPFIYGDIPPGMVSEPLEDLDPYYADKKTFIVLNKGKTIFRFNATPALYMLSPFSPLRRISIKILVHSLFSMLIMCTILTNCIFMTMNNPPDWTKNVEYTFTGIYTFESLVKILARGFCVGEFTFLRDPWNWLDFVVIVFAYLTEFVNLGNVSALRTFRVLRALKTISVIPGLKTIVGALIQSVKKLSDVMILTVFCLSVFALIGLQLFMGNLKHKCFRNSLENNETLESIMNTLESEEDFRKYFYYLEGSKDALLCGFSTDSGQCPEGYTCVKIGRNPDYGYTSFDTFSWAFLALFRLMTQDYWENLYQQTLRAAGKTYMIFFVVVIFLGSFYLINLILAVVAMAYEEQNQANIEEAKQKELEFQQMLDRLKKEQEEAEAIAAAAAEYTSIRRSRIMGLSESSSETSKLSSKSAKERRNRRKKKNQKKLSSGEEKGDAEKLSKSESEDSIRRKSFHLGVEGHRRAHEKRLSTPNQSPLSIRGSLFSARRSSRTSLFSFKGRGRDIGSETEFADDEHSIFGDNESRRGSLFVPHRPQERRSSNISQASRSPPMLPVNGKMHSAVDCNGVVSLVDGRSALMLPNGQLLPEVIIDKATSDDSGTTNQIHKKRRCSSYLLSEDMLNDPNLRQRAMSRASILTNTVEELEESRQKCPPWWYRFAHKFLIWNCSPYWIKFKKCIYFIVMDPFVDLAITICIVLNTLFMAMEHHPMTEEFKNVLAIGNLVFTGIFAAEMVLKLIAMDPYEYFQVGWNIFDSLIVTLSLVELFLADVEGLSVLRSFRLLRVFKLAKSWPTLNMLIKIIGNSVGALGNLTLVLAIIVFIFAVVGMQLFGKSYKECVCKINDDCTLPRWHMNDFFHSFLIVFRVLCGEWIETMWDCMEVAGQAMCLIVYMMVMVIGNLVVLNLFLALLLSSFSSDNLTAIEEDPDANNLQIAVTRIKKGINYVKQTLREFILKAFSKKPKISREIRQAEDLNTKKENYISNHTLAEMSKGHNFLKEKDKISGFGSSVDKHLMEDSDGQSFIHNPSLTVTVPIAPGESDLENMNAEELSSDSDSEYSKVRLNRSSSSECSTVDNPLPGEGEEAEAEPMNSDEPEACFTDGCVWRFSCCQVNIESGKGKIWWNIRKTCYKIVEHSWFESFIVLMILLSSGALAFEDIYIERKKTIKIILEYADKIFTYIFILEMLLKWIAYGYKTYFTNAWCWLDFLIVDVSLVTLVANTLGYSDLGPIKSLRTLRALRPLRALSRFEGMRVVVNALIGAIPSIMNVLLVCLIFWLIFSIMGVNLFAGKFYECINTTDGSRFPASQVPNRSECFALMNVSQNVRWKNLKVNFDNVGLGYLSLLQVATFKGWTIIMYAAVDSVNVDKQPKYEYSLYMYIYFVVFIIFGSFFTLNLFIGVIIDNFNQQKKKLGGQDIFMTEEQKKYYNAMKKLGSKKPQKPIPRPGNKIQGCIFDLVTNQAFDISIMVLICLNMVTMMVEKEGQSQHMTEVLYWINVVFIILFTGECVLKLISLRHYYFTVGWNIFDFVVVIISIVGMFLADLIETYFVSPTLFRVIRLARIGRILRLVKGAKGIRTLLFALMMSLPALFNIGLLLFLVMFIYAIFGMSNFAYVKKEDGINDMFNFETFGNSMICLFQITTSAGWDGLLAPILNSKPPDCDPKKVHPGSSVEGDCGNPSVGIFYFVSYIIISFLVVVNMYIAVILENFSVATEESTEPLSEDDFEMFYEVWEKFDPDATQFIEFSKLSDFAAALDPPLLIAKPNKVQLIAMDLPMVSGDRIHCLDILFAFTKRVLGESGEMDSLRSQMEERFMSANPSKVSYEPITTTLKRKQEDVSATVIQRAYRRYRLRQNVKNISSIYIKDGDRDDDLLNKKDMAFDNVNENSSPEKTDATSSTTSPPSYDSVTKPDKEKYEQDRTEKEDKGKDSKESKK", "experiment": "Whole-cell voltage clamp electrophysiology, automated patch clamp (marker c in Table of Examples)", "format": "cell-based", "conditions": "marker c = Automated patch clamp data; read-out: Nav 1.7 activity", "summary_of_the_method": "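Human NaV1.7 currents were recorded by whole-cell automated patch clamp, on IonWorks Quattro or another automated platform, typically in perforated-patch configuration. The stimulus protocol was designed to probe block mainly of the inactivated state, with a typical sweep stepping from about −65 mV holding to −10 mV, then −100 mV.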"}
{"smiles": "CC(C)CS(=O)(=O)N1CCC[C@@H]1c1nc(-c2nc(N)nc(N(C)c3ccccc3)n2)no1", "note": "[Example 447, 2-N-methyl-6-{5-[(2R)-1-[(2-methylpropane)sulfonyl]pyrrolidin-2-yl]-1,2,4-oxadiazol-3-yl}-2-N-phenyl-1,3,5-triazine-2,4-diamine]", "pIC50": 5.96}
{"smiles": "CN(c1ccccc1)c1nc(N)nc(-c2noc([C@H]3CCCN3S(=O)(=O)CC(F)(F)F)n2)n1", "note": "[Example 448, 2-N-methyl-2-N-phenyl-6-{5-[(2R)-1-[(2,2,2-trifluoroethane)sulfonyl]pyrrolidin-2-yl]-1,2,4-oxadiazol-3-yl}-1,3,5-triazine-2,4-diamine]", "pIC50": 6.54}
{"smiles": "CN(c1ccccc1)c1nc(N)nc(-c2noc([C@H]3CCCN3C(=O)CC3CC3)n2)n1", "note": "[Example 449, 1-[(2R)-2-(3-{4-amino-6-[methyl(phenyl)amino]-1,3,5-triazin-2-yl}-1,2,4-oxadiazol-5-yl)pyrrolidin-1-yl]-2-cyclopropylethan-1-one]", "pIC50": 5.59}
{"smiles": "CN(c1ccccc1)c1nc(N)nc(-c2noc([C@@H]3CCCN3C(=O)CC3CC3)n2)n1", "note": "[Example 450, 1-[(2S)-2-(3-{4-amino-6-[methyl(phenyl)amino]-1,3,5-triazin-2-yl}-1,2,4-oxadiazol-5-yl)pyrrolidin-1-yl]-2-cyclopropylethan-1-one]", "pIC50": 5.02}
{"smiles": "CN(c1ccccc1)c1nc(N)nc(-c2noc([C@@H]3CCCN3C(=O)CC(F)(F)F)n2)n1", "note": "[Example 451, 1-[(2S)-2-(3-{4-amino-6-[methyl(phenyl)amino]-1,3,5-triazin-2-yl}-1,2,4-oxadiazol-5-yl)pyrrolidin-1-yl]-3,3,3-trifluoropropan-1-one]", "pIC50": 5.10}
{"smiles": "CN(c1ccccc1)c1nc(N)nc(-c2noc(-c3ccc(SCC4CC4)nc3)n2)n1", "note": "[Example 452, 6-(5-{6-[(cyclopropylmethyl)sulfanyl]pyridin-3-yl}-1,2,4-oxadiazol-3-yl)-2-N-methyl-2-N-phenyl-1,3,5-triazine-2,4-diamine]", "pIC50": 7.21}
{"smiles": "CN(c1ccccc1)c1nc(N)nc(-c2noc(-c3ccc(SCCC(F)(F)F)nc3)n2)n1", "note": "[Example 453, 2-N-methyl-2-N-phenyl-6-{5-{6-[(3,3,3-trifluoropropyl)sulfanyl]pyridin-3-yl}-1,2,4-oxadiazol-3-yl)-1,3,5-triazine-2,4-diamine]", "pIC50": 6.92}
{"smiles": "CN(c1ccccc1)c1nc(N)nc(-c2noc(-c3ccc(S(=O)(=O)CCC(F)(F)F)nc3)n2)n1", "note": "[Example 454, 2-N-methyl-2-N-phenyl-6-(5-{6-[(3,3,3-trifluoropropane)sulfonyl]pyridin-3-yl}-1,2,4-oxadiazol-3-yl)-1,3,5-triazine-2,4-diamine]", "pIC50": 6.54}
{"smiles": "CN(c1ccccc1)c1nc(N)nc(-c2noc(-c3ccc([S+]([O-])CCC(F)(F)F)nc3)n2)n1", "note": "(centres unmarked) [Example 455, 2-N-methyl-2-N-phenyl-6-(5-{6-[(3,3,3-trifluoropropane)sulfinyl]pyridin-3-yl}-1,2,4-oxadiazol-3-yl)-1,3,5-triazine-2,4-diamine]", "pIC50": 7.24}
{"smiles": "CN(c1ccccc1)c1nc(N)nc(-c2noc(-c3ccc([S+]([O-])CC4CC4)nc3)n2)n1", "note": "(centres unmarked) [Example 456, 6-{5-[6-(cyclopropylmethane)sulfinylpyridin-3-yl]-1,2,4-oxadiazol-3-yl}-2-N-methyl-2-N-phenyl-1,3,5-triazine-2,4-diamine]", "pIC50": 6.51}
{"smiles": "Nc1nc(Nc2ccccc2)nc(-c2noc(C(=O)N3CCC(OCC(F)(F)F)CC3)n2)n1", "note": "[Example 457, 2-N-phenyl-6-(5-{[4-(2,2,2-trifluoroethoxy)piperidin-1-yl]carbonyl}-1,2,4-oxadiazol-3-yl)-1,3,5-triazine-2,4-diamine]", "pIC50": 5.89}
{"smiles": "CCOC1CCN(C(=O)c2nc(-c3nc(N)nc(N(C)c4ccccc4)n3)no2)CC1", "note": "[Example 458, 6-{5-[(4-ethoxypiperidin-1-yl)carbonyl]-1,2,4-oxadiazol-3-yl}-2-N-methyl-2-N-phenyl-1,3,5-triazine-2,4-diamine]", "pIC50": 5.33}
{"smiles": "CN(c1ccccc1)c1nc(N)nc(-c2noc(C(=O)N3CCC(COCC4CC4)CC3)n2)n1", "note": "[Example 459, 6-[5-({4-[(cyclopropylmethoxy)methyl]piperidin-1-yl}carbonyl)-1,2,4-oxadiazol-3-yl]-2-N-methyl-2-N-phenyl-1,3,5-triazine-2,4-diamine]", "pIC50": 5.49}
{"smiles": "CN(c1ccccc1)c1nc(N)nc(-c2noc(C(=O)N3CCC(COCC(F)(F)F)CC3)n2)n1", "note": "[Example 460, 2-N-methyl-2-N-phenyl-6-[5-({4-[(2,2,2-trifluoroethoxy)methyl]piperidin-1-yl]carbonyl)-1,2,4-oxadiazol-3-yl]-1,3,5-triazine-2,4-diamine]", "pIC50": 5.52}
{"smiles": "Nc1nc(Nc2ccccc2)nc(-c2noc(C(=O)N3CCC(COCC(F)(F)F)CC3)n2)n1", "note": "[Example 461, 2-N-phenyl-6-[5-({4-[(2,2,2-trifluoroethoxy)methyl]piperidin-1-yl}carbonyl)-1,2,4-oxadiazol-3-yl]-1,3,5-triazine-2,4-diamine]", "pIC50": 5.78}
{"smiles": "Nc1nc(Nc2ccccc2)nc(-c2noc(C(=O)N3CCC(OCC4CC4)CC3)n2)n1", "note": "[Example 462, 6-(5-{[4-(cyclopropylmethoxy)piperidin-1-yl]carbonyl}-1,2,4-oxadiazol-3-yl)-2-N-phenyl-1,3,5-triazine-2,4-diamine]", "pIC50": 5.44}
{"smiles": "Nc1nc(Nc2ccccc2)nc(-c2noc(C(=O)N3CCC(COCC4CC4)CC3)n2)n1", "note": "[Example 463, 6-[5-({4-[(cyclopropylmethoxy)methyl]piperidin-1-yl}carbonyl)-1,2,4-oxadiazol-3-yl]-2-N-phenyl-1,3,5-triazine-2,4-diamine]", "pIC50": 5.74}
{"smiles": "CN(c1ccccc1)c1nc(N)nc(-c2noc(C(=O)N3CCC(COCCC(F)(F)F)CC3)n2)n1", "note": "[Example 464, 2-N-Methyl-2-N-phenyl-6-[5-({4-[(3,3,3-trifluoropropoxy)methyl]piperidin-1-yl}carbonyl)-1,2,4-oxadiazol-3-yl]-1,3,5-triazine-2,4-diamine]", "pIC50": 6.14}
{"smiles": "CN(c1ccccc1)c1nc(N)nc(-c2noc(C(=O)N3CCC(SCC(F)(F)F)CC3)n2)n1", "note": "[Example 465, 2-N-methyl-2-N-phenyl-6-[5-({4-[(2,2,2-trifluoroethyl)sulfanyl]piperidin-1-yl}carbonyl)-1,2,4-oxadiazol-3-yl]-1,3,5-triazine-2,4-diamine]", "pIC50": 5.98}
{"smiles": "Nc1nc(Nc2ccccc2)nc(-c2noc(C(=O)N3CCC(SCC(F)(F)F)CC3)n2)n1", "note": "[Example 466, 2-N-phenyl-6-[5-({4-[(2,2,2-trifluoroethyl)sulfanyl]piperidin-1-yl}carbonyl)-1,2,4-oxadiazol-3-yl]-1,3,5-triazine-2,4-diamine]", "pIC50": 6.13}
{"smiles": "Cc1ncc(-c2nc(-c3nc(N)nc(N(C)c4ccccc4)n3)no2)cn1", "note": "[Example 467, 2-N-methyl-6-[5-(2-methylpyrimidin-5-yl)-1,2,4-oxadiazol-3-yl]-2-N-phenyl-1,3,5-triazine-2,4-diamine]", "pIC50": 5.00}
{"smiles": "CN(c1ccccc1)c1nc(N)nc(-c2noc(-c3cnccn3)n2)n1", "note": "[Example 468, 2-N-methyl-2-N-phenyl-6-[5-(pyrazin-2-yl)-1,2,4-oxadiazol-3-yl]-1,3,5-triazine-2,4-diamine]", "pIC50": 5.05}
{"smiles": "CN(c1ccccc1)c1nc(N)nc(-c2noc(-c3ccnnc3)n2)n1", "note": "[Example 469, 2-N-methyl-2-N-phenyl-6-[5-(pyridazin-4-yl)-1,2,4-oxadiazol-3-yl]-1,3,5-triazine-2,4-diamine]", "pIC50": 5.53}
